Measurements published in ChEMBL document CHEMBL1201862, “PubChem BioAssay data set” (2004).
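Each compound was tested at five concentrations against cells in 96-well plates for 48 hours. GI50 is the concentration that inhibits growth by half.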 Activity calls are given as the source filed them. Rule as the data show it: active = GI50 up to about 1.1 µM and inactive = higher.

Legend:
Assay in all cases: growth of human tumour cells (NCI), 48 h
SNB-19 = test system: SNB-19
K562 = test system: K562
HOP-62 = test system: HOP-62
SW-620 = test system: SW-620
SNB-75 = test system: SNB-75
HL-60 = test system: HL-60
CCRF-CEM = test system: CCRF-CEM
RPMI-8226 = test system: RPMI-8226
HCT-15 = test system: HCT-15
RXF 393 = test system: RXF 393
HT-29 = test system: HT-29
COLO 205 = test system: COLO 205
NCI-H522 = test system: NCI-H522
LOX IMVI = test system: LOX IMVI
786-0 = test system: 786-0
U-251 = test system: U-251
SF-539 = test system: SF-539
OVCAR-3 = test system: OVCAR-3

Structure (SMILES)	GI50 (SNB-19)	GI50 (K562)	GI50 (HOP-62)	GI50 (SW-620)	GI50 (SNB-75)	GI50 (HL-60)	GI50 (CCRF-CEM)	GI50 (RPMI-8226)	GI50 (HCT-15) [µM]	GI50 (RXF 393)	GI50 (HT-29)	GI50 (COLO 205)	GI50 (NCI-H522)	GI50 (LOX IMVI)	GI50 (786-0)	GI50 (U-251)	GI50 (SF-539)	GI50 (OVCAR-3)
CC(=O)O[C@]12CCCCC1C1(O)C(O)CCCC[C@H]12 (some centres not stated)	> 100 µM (inactive)	> 100 µM (inactive)	> 100 µM (inactive)	> 100 µM (inactive)	29.6 µM (inactive)	> 100 µM (inactive)	> 100 µM (inactive)	> 100 µM (inactive)	> 100	> 100 µM (inactive)	> 100 µM (inactive)	> 100 µM (inactive)	> 100 µM (inactive)	> 100 µM (inactive)	> 100 µM (inactive)	> 100 µM (inactive)	–	–
O=C1NC(=O)C(C(=O)C(=O)Nc2cc(Cl)ccc2Cl)C(=O)N1	> 100 µM (inactive)	> 100 µM (inactive)	> 100 µM (inactive)	> 100 µM (inactive)	83.2 µM (inactive)	> 100 µM (inactive)	> 100 µM (inactive)	> 100 µM (inactive)	> 100	> 100 µM (inactive)	–	> 100 µM (inactive)	> 100 µM (inactive)	–	> 100 µM (inactive)	> 100 µM (inactive)	> 100 µM (inactive)	> 100 µM (inactive)
COC(=O)c1ccc2n[se]nc2c1	> 100 µM (inactive)	> 100 µM (inactive)	> 100 µM (inactive)	> 100 µM (inactive)	83.6 µM (inactive)	> 100 µM (inactive)	> 100 µM (inactive)	> 100 µM (inactive)	> 100	> 100 µM (inactive)	> 100 µM (inactive)	–	> 100 µM (inactive)	> 100 µM (inactive)	> 100 µM (inactive)	> 100 µM (inactive)	> 100 µM (inactive)	–
Oc1nc(CC(O)c2ccc(Cl)c(Cl)c2)cc(-c2ccccc2)n1 (configuration not stated)	67.9 µM (inactive)	51.3 µM (inactive)	> 100 µM (inactive)	> 100 µM (inactive)	33 µM (inactive)	25.1 µM (inactive)	30.1 µM (inactive)	–	89.1	41.1 µM (inactive)	40.5 µM (inactive)	17.3 µM (inactive)	22.6 µM (inactive)	> 100 µM (inactive)	> 100 µM (inactive)	> 100 µM (inactive)	> 100 µM (inactive)	48.8 µM (inactive)
Cc1cc(NS(=O)(=O)c2ccc(Nc3c4ccccc4nc4c(C(=O)NCCN(C)C)cccc34)cc2)no1	1.72 µM (inactive)	2.69 µM (inactive)	2.09 µM (inactive)	2.52 µM (inactive)	4.09 µM (inactive)	0.152 µM (active)	1.08 µM (active)	–	18.5	5.6 µM (inactive)	6.03 µM (inactive)	6.12 µM (inactive)	0.813 µM (active)	1.35 µM (inactive)	3.83 µM (inactive)	2.3 µM (inactive)	2.12 µM (inactive)	–
COC(=O)C1[C@@H](C(=O)OC)C12C=Cc1ccccc1C=C2 (some centres not stated)	> 100 µM (inactive)	> 100 µM (inactive)	> 100 µM (inactive)	> 100 µM (inactive)	–	> 100 µM (inactive)	> 100 µM (inactive)	> 100 µM (inactive)	> 100	> 100 µM (inactive)	–	> 100 µM (inactive)	> 100 µM (inactive)	> 100 µM (inactive)	> 100 µM (inactive)	> 100 µM (inactive)	> 100 µM (inactive)	> 100 µM (inactive)
